From patent publication US6894153B1, “Gene Any-RF; dormancy regulatory substance, process for producing the same and cell regulator for vital cells” (priority 1999, dated 2005)
No end group written: not given here.

Key:
[1] = test system: pre-larvae of Antheraea yamamai; assay: Bioassay of dormancy-control in pre-larvae destined to awake by KK-42 treatment
Procedure: In general, the activity of a repressive factor is determined using a non-dormancy type insect and evaluated on the basis of the rate of dormancy induction, but there is not any non-dormancy type strain in Antheraea yamamai.
Subsequent to the completion of the treatment for awakening from the dormancy, 0.05 μl each of distilled water was injected to each larva after 24 hours from the completion of the treatment and this group of larvae was used as the control group. In the case of the isolated and purified product, a solution whose concentration was adjusted in such a manner that 100 pmol of the product was present in 0.05 μl of distilled water was injected into each larva, while in the case of the synthetic peptides in the amidated and free acid forms, 100 pmol/0.05 μl each of the peptide was injected into each larva. In any case, the larvae were inspected for the number of larvae falling into dormancy, the number of larvae awakening from the dormancy, the number of died larvae and the average days required till awakening from the dormancy (diapause termination) to thus evaluate the rate of larvae awakening from the dormancy.
After 24 hours from the treatment with the KK-42 solution, 0.05 μl of distilled water was injected to the pre-larvae, followed by a second distilled water injection thereto after additional 24 hours and a third distilled water injection after additional 24 hours from the second distilled water injection (in the following Table 2, they are referred to as control 1, 2 and 3 respectively). And the rate of pre-larvae awaken from the dormancy (the rate of diapause termination) was evaluated in each case.

[2] = test system: cultured cells of lymphoma and leukemia; settings: Moore et al. 1994; cited from earlier work
[3] = test system: rat hepatoma cells (dRLh84); assay: Assay for cancer cell growth-control (viable cell count, trypan blue); type: cell-based
Procedure: (§1) Rat hepatoma cells (dRLh 84) were used and these cells were cultivated in Dulbecco's modified Eagle medium (DMEM) containing 4 mM glutamine, 50U/ml penicillin, 100 μg/ml kanamycin, and supplemented with 10% neonatal calf serum. In respect of the foregoing cells, the cultivation thereof was carried out at 37° C. in a wet atmosphere including 5% CO2.
The used culture medium was removed from a (100 mm dish (generally schale) in which cells were cultured and the dish was once washed with PBS(−) (prepared by removing Ca and Mg ions from phosphate buffered saline). To the dish, there was gently added 1.5 ml of a 10% trypsin solution so that the solution uniformly spreaded throughout the dish, 1 ml of the solution was removed, the dish was maintained at 37° C. for 5 minutes and it was confirmed with a microscope that the cells were pealed off from the bottom of the dish. Then 9.5 ml of a fresh DEME medium was added to the dish and the cells were separated into individual cells by pipetting to thus suspend the cells in the medium. Dishes of Φ100 mm were inoculated with this suspension in a dilution of 1/20 (total amount: 10 ml), followed by introduction thereof into an incubator and cultivation for 24 hours. Each peptide was added to these dishes in a predetermined concentration, followed by cultivation at 37° C., determination of the number of cells using a blood counting plate after 24 and 48 hours from the initiation of the cultivation to thus inspect the peptides for their cell growth-control functions.
Rat hepatoma cells (dRLh84, 3×10^5 cells) were cultured in a culture medium, to which the peptide (DILRG—NH2, SEQ ID NO:5, the peptide of SEQ ID NO:1 having the C-terminal amidated or DILRG—COOH, SEQ ID NO:1) was added in a predetermined amount (0, 50, 100, 150, 200 μg/ml) in the presence of 5% CO2 at 37° C. for 40 hours. Thereafter, the culture medium was treated with trypan blue to determine the […] cell count.
Thus, the cultivation time was extended to investigate the relation between the proliferation ability of cancer cells and the cultivation time using the physiologically active substance of the present invention. The method for cultivation used herein was identical to that used in Example 7. The cultivation time was extended up to 72 hours. The cultivation of 3×10^5 cells was carried out using a culture medium supplemented with PBS(−) for a control group and a cell culture medium for an experimental group, to which 200 μg/ml of the peptide (DILRG—NH2) was added, in the presence of 5% CO2 at 37° C. for 24, 48 and 72 hours, respectively. Thereafter, the culture medium was treated with trypan blue to determine the viable cell count.
The fact that the physiologically active substance derived from insects can results obtained in Examples 6, 7 and 8. […] Thus, we investigated which part of the 5 amino acid sequence of this substance is indispensable to the cell growth-control activity from the structural standpoint. Cells were cultured by the same method used in Example 6. More specifically, in the control group, there were used a culture medium supplemented with PBS(−) and FMRF—NH2(SEQ ID NO:4), which is widely distributed from echinoderms to insects and mammals, which comprises 4 amino acid residues and whose C-terminal is amidated. In an experimental group, there was used a culture medium supplemented with the complete synthetic peptide (DILRG—NH2) or an incomplete synthetic peptide (ILRG—NH2) free of the aspartic acid residue at the N-terminal in a concentration of 200 μg/2.6×10^5 cells. The control group and the experimental group were cultured at 37° C. for 48 hours in the presence of 5% CO2. Thereafter the cells were stained with trypan blue to thus determine the number of cells.

[4] = test system: rat hepatoma cells (dRLh84); assay: Morphological observation of cultured cancer cells (inverted microscope); type: cell-based; settings: 200 μg/ml
Procedure: as §1
The inhibitory effect of the penta-peptide on the growth of cancer cells was examined as follows. As the cancer cells, there were used rat hepatoma cells (dRLh84), which were relatively easily available and whose cultivation was easy. To make clear the relation between the physiologically active substance (RF—NH2) of the present invention and the growth of cancer cells, cancer cells were cultured in a cell culture medium supplemented with PBS(−) for a control group and culture mediums supplemented with 200 μg/ml each of the peptide whose C-terminal was amidated, i.e., RF—NH2 and the peptide whose C-terminal was in a free acid form, i.e., RF—COOH, respectively, for the experimental groups. The number of cultured cells was adjusted to 3 to 5×10^5, and the cells were cultured with or without a predetermined amount of each peptide in the presence of 5% CO2 at 37° C. […]

[5] = test system: rat hepatoma cells (dRLh84); assay: Flow cytometric analysis of cell cycle (propidium iodide DNA content); type: cell-based; settings: 200 μg/ml; 48 hours
Procedure: The cells treated with each peptide was fixed at 4° C. for 4 hours using 70% ethanol. The fixed cells were washed with PBS(−), then treated with 2 mg/ml of RNaseA at 37° C. for 30 minutes to thus […] the RNA. Thereafter, the cells were stained with propidium iodide (25 μg/ml) for not less than 30 minutes and filtered through a nylon mesh. Then the intensity of fluorescence (DNA content per cell) observed for 10,000 cells was analyzed using a flow cytometer ([…] available from Becton Dickinson Company).
The fact that the physiologically active substance of the present invention can inhibit the cell growth ability of the rat hepatoma is substantiated experimentally by the results obtained in Examples 6, 7 and 8 (FIGS. 9, 10 and 11). Thus, we tried to elucidate the mechanism of the inhibition. The peptide (DILRG—NH2)(200 μg/ml) was added to the culture medium under the same conditions used in Example 6 and the cells were cultured, followed by fixing the cells after cultivation of 48 hours with ethanol and then staining the cells with propidium iodide. In addition, the same procedures used above were repeated using a culture medium supplemented with PBS(−) as a control group. The DNA content in the cells was analyzed using a flow cytometer. The flow cytometric analysis employed for this purpose comprises the step of staining cells with propidium iodide, which is a fluorescent dye capable of being linked with DNA to thus determine the DNA content of the cell and this method permits the analysis of the cell cycle control. More specifically, the biological cell multiplies by cell division while undergoing the following cycle change: G0/G 1. S (DNA replication stage) and M stage (cell division stage) in this order. FIGS. 12(A) and 12(B) are graphs each showing the results obtained by determining the DNA content in each cancer cell using a flow cytometer and then analyzing the results. It can be predicted from the data shown in FIGS. 12(A) and 12(B), i.e., the cell cycle change observed for the control group (PBS(−) was used, FIG. 12(A)) and that observed for the experimental group (RF—NH2 was used, FIG. 12(B)), that the pattern of the rat hepatoma cell cycle is differently affected by the presence and absence of the peptide.
Then the patterns observed in FIGS. 12(A) and 12(B) were examined in detail. In the G0/G1 stage, the DNA content is 2n, while that observed in the M stage is two times that observed for the G0/G1 stage or 4n. In the analysis of data shown in FIGS. 12(A) and 12(B), the DNA contents of 2n and 4n correspond to peaks or wide peaks at 360 and 700, respectively. If it is assumed that the analyzed pattern of the cell cycle change shown in FIGS. 12(A) and 12(B) comprises a linear coupling of peaks specific to G0/G1, S, M stages, the rate of cells in each stage can be obtained by dividing the pattern into these individual components.

[6] = Acute toxicity test in rats; type: in vivo
Procedure: (§2) The foregoing peptide of the present invention as the physiologically active substance is almost free of an) side effect in the living body as compared with the conventional Cecropin and Pierisin and any acute toxicity is not observed at all. More specifically, the peptide of the present invention was administered to rats and mice through two routes, i.e., oral and percutaneous routes, in an amount of 0.5 g per unit body weight (1 kg) and the acute toxicity test was carried out according to the predetermined method. […] Moreover, the testis of the genital organ was removed from each animal after the acute toxicity test and the tissue was examined with a microscope. […] In addition, the peptide of the present invention is a low molecular weight penta-peptide and therefore, it never causes any antigen-antibody reaction and it is safe.

[7] = Acute toxicity test in mice; type: in vivo
Procedure: as §2

[8] = 100 pmol/0.05 μl injected once 24 hours after KK-42 treatment, N 10 × 3
[9] = 100 pmol/0.05 μl injected once 24 hours after KK-42 treatment
[10] = Table 2, 100 pmol/0.05 μl × 1, N 10 × 3
[11] = Table 2, 100 pmol/0.05 μl × 2 (24 hours apart), N 10 × 3
[12] = Table 2, 100 pmol/0.05 μl × 3 (24 hours apart), N 10 × 3
[13] = Example 10, 200 μg/2.6×10^5 cells, 48 hours
[14] = after the acute toxicity test, 0.5 g/kg oral and percutaneous
[15] = oral and percutaneous routes, 0.5 g per unit body weight (1 kg)

## 1-benzyl-5-[(E)-2,6-dimethyl-1,5-heptadienyl] [KK-42, reference compound]
[1]; 0.1 μg/0.5 μl solution in acetone applied on the ventral portion of each larva
  larvae awakened from the dormancy: 100%

## Cecropin
[2]
  anti-tumor activity to cultured cells: anti-tumor activity

## DILRG-OH [Asp-Ile-Leu-Arg-Gly-COOH]
[1]; [8]
  Number of Insects Died: 0

## H-DILRG-NH2 [Asp-Ile-Leu-Arg-Gly-NH2]
[1]; [9]
  No. of Days (Time (day) required till Awakening): 6.72 days
  Rate (the rate of larvae awakening from dormancy): 53.3%
[1]; [8]
  Number of Insects Awa (Awakening from Dormancy): 16
  Number of Insects Died: 0
  Number of Insects Dor (Dormancy): 14
[1]; Table 2, 100 pmol/0.05 μl × 1
  Rate of Diapause Termination: 53.3%
[1]; [10]
  Number of Insects Awa (Diapause Termination): 16
  Number of Insects Died: 0
  Number of Insects Dor (Dormancy): 14
[1]; Table 2, 100 pmol/0.05 μl × 2 (24 hours apart)
  Rate of Diapause Termination: 30%
[1]; [11]
  Number of Insects Awa (Diapause Termination): 9
  Number of Insects Died: 0
  Number of Insects Dor (Dormancy): 21
[1]; Table 2, 100 pmol/0.05 μl × 3 (24 hours apart)
  Rate of Diapause Termination: 13.3%
[1]; [12]
  Number of Insects Awa (Diapause Termination): 4
  Number of Insects Died: 0
  Number of Insects Dor (Dormancy): 26
[3]; Example 7, 50 μg/ml, 3×10^5 cells cultured 40 hours
  viable cell count: markedly reduced
[3]; Example 7, 200 μg/ml, 3×10^5 cells cultured 40 hours
  viable cell count: 7.7×10^5 cells
[3]; Example 7, 200 μg/ml, 40 hours
  viable cell count relative to that observed for the control group: a half
[3]; Example 8, 200 μg/ml, from 3×10^5 cells within 72 hours
  viable cell count: 8×10^5 cells
[3]; Example 8, 200 μg/ml, within 72 hours
  factor of increase of the number of cells: 2.7
[3]; [13]
  viable cell count: ~7.7×10^5 cells
[3]; after cultivation for 48 hours with 200 μg/ml peptide
  cancer cell growth after transfer to fresh culture medium without peptide: rapidly began to proliferate like the control group
[4]; after 24 and 48 hours
  number of cancer cells compared with the initiation of the cultivation (0 hour): not increased at all
[4]; after 48 hours
  shape of the cells: changed from a spindle-like shape to a circular shape
[5]
  G0/G1 stage rate higher than that observed for the control group: not less than 30%
  Rate of cells in G0/G1 Stage: 66.07%
  Rate of cells in G2/M Stage: 12.10%
  Rate of cells in S Stage: 21.84%
  S stage rate lower than that observed for the control group: not less than 40%
[6]; [14]
  testis tissue examined with a microscope: any abnormality was not observed at all
[6]; [15]
  acute toxicity such as convulsion and vomiting: not observed any acute toxicity
[7]; [14]
  testis tissue examined with a microscope: any abnormality was not observed at all
[7]; [15]
  acute toxicity such as convulsion and vomiting: not observed any acute toxicity

## Ile-Leu-Arg-Gly (ILRG-NH2) [ILRG—NH2]
[3]; [13]
  growth-inhibitory effect: sufficient growth-inhibitory effect
  viable cell count: 8.4×10^5 cells
